Test results as given in patent US20230382915A1, “GCN2 AND PERK KINASE INHIBITORS AND METHODS OF USE THEREOF” (Deciphera Pharmaceuticals, LLC, priority 2021, published 2023).
pIC50: −log10 of the molar value.

Columns and labels:
[1] = molecular target: GCN2 kinase (Homo sapiens (Human), UniProt Q9P2K8); test: Biochemical assay for GCN2 (TR-FRET kinase activity); settings: 1 mM ATP
Description: Activity of GCN2 kinase was determined using a TR-FRET kinase activity assay (e.g. Riddle et al. Analytical Biochemistry (2006) 356(1) 108-116). Assays were conducted in 384-well plates (13 μL assay volume) using 2 nM GCN2 (Carna Biosciences), 130 nM GFP-EIf2α (Invitrogen), 0.2 mg/mL E. coli tRNA (sigma) and 1 mM ATP in kinase buffer (Invitrogen). Inhibition of GCN2 was measured by adding serial diluted test compound (final assay concentration of 0.5% DMSO) followed by a 3-hour incubation. Tb-peIF2α (pSer52) antibody (Invitrogen) (2 nM final assay concentration) in kinase buffer containing EDTA (final assay concentration of 20 mM) was added. After a 60 min incubation at room temperature, TR-FRET was monitored using an excitation wavelength of 340 nm and emission wavelengths of 490 nm and 520 nm. The emission ratio (520/490) at each compound concentration of was converted to percent inhibition using controls (i.e., reaction with no test compound and reaction with a known inhibitor) and IC50 values were calculated by fitting a four-parameter sigmoidal curve to the data using Prism (GraphPad software).

[2] = system: ATF4 in HCT116 colorectal cancer cells; test: HCT116 amino acid starved (-AA) ATF4 Western blot; format: cell-based; settings: Homo sapiens, HCT-116, 4 h
Description: (§1) HCT116 colorectal cancer cells (catalog #CCL-247) were obtained from the American Type Culture Collect (ATTC, Manassas, VA). Briefly, cells were grown in RPMI 1640 supplemented with 10% heat inactivated fetal bovine serum (Invitrogen, Carlsbad, CA) and 1% Penicillin/Streptomycin/L-Glutamine at 37° C., 5% CO2, and 95% humidity. Cells were expanded until reaching 70-95% confluency at which point they were subcultured or harvested for assay use. Cells were seeded in 12-well culture plate at five hundred thousand cells per well in 1 mL complete growth medium and incubated overnight at 37° C., 5% CO2, and 95% humidity. The next day each well was replaced with 1 mL Earle's Balanced Salt Solution (EBSS, Invitrogen, Carlsbad, CA) supplemented with 10% Dialyzed Fetal Bovine Serum, 5.5 mM Glucose, 1% Penicillin/Streptomycin and 1% Vitamin solution (thermo #11120052). A serial dilution of test compound was dispensed into well. Plates were incubated for 4 h at 37° C., 5% CO2, and 95% humidity. […] Western blot was performed on each lysate to quantify phospho-GCN2 (Thr899), total GCN2, ATF4 and beta-Actin. […] Data were analyzed using GraphPad Prism software (GraphPad, San Diego, CA) to calculate IC50 values.

[3] = system: ATF4 in thapsigargin stimulated CCRF-CEM cells (PERK); test: CCRF-CEM thapsigargin (TG) ATF4 ELISA; format: cell-based; settings: Homo sapiens, 1 μM thapsigargin
Description: CCRF-CEM leukemia cells (catalog #CCL-116) were obtained from the American Type Culture Collection (ATTC, Manassas, VA). Briefly, cells were grown in RPMI-1640 medium supplemented with 10% heat-inactivated fetal bovine serum (Invitrogen, Carlsbad, CA) and 1% Penicillin/Streptomycin/L-Glutamine at 37° C., 5% CO2, and 95% humidity. Cells were expanded until reaching one million cells per mL at which time they were subcultured or harvested for assay use. One million five hundred thousand cells per well in 1 mL complete growth medium were dispensed into 12-well plates and incubated overnight. A serial dilution of test compound was added and cells were incubated at 37° C., 5% CO2, and 95% for three hours, then 1 μM thapsigargin was added and cells were incubated for an additional hour at 37° C., 5% CO2, and 95%. Cells were lysed then ATF4 levels were measured using an ELISA assay (Proteintech, Rosemont, IL). Absorbance was measured at 450 nm and 544 nM using a Synergy2 or equivalent reader (Biotek, Winooski VT). Data was analyzed using PRISM software (Graphpad, San Diego, CA) to calculate IC50 values.

[4] = molecular target: PERK enzyme (Homo sapiens (Human), UniProt Q9NZJ5); test: Biochemical assay for PERK (coupled pyruvate kinase/lactate dehydrogenase); settings: 1 mM ATP
Description: Activity of PERK kinase was determined spectroscopically using a coupled pyruvate kinase/lactate dehydrogenase assay that continuously monitors the ATP hydrolysis-dependent oxidation of NADH (e.g., Schindler et al. Science (2000) 289: 1938-1942). Assays were conducted in 384-well plates ([…] final volume) using 10 nM PERK (from Beryllium), 0.25 mg/mL Myelin Basic Protein substrate, 1.5 units pyruvate kinase, 2.1 units lactate dehydrogenase, 1 mM phosphoenol pyruvate, 0.28 mM NADH and 1 mM ATP in assay buffer (100 mM Tris, pH 7.5, 15 mM MgCl2, 0.5 mM DTT, 0.004% (w/v) BSA, and 0.004% Triton X-100). Inhibition of PERK was measured by adding serial diluted test compound (final assay concentration of 1% DMSO). A decrease in absorption at 340 nm was monitored continuously for 6 hours at 30° C. on a multi-mode microplate reader (BioTek). The reaction rate was calculated using the 2-3 h time frame. The reaction rate at each concentration of compound was converted to percent inhibition using controls (i.e., reaction with no test compound and reaction with a known inhibitor) and IC50 values were calculated using software routines in Prism (GraphPad software).

[5] = system: phospho-GCN2 (Thr899) in HCT116 colorectal cancer cells; test: HCT116 amino acid starved (-AA) phospho-GCN2 Western blot; format: cell-based; settings: Homo sapiens, HCT-116, 4 h, read-out: HCT116 -AA pGCN2 Western Blot
Description: as §1

[6] = system: CCRF-CEM leukemia cells; test: CCRF-CEM ASNase cell proliferation assay; format: cell-based; settings: Homo sapiens, 1 mU/mL ASNase, 72 h
Description: CCRF-CEM leukemia cells (catalog #CCL-116) were obtained from the American Type Culture Collect (ATTC, Manassas, VA). Cells were grown in RPMI-1640 medium supplemented with 10% heat-inactivated fetal bovine serum (Invitrogen, Carlsbad, CA) and 1% Penicillin/Streptomycin/L-Glutamine at 37° C., 5% CO2, and 95% humidity. Cells were expanded until reaching one million cells per mL at which time they are subcultured or harvested for assay use. Ten thousand cells per well in 200 μL RPMI-1640 supplemented with 10% heat-inactivated fetal bovine serum and 1% Penicillin/Streptomycin were dispensed into a 96-well black clear bottom plate. A serial dilution of test compound and 1 mU/mL ASNase was added in triplicate and plates were incubated for 72 h at 37° C., 5% CO2, and 95% humidity. At the end of the incubation, 40 μL of a […] solution of resazurin (Sigma, St. Louis, MO) in PBS was added to each well of the plate and plates were incubated for an additional 6 h at 37° C., 5% CO2, and 95% humidity. Plates were read on a Synergy2 or equivalent reader (Biotek, Winooski VT) using an excitation of 540 nm and an emission of 600 nm. Data was analyzed using GraphPad Prism software (GraphPad, San Diego, CA) to calculate IC50 values.

[7] = system: ATF4 in H929 multiple myeloma cells; test: H929 ATF4 ELISA assay; format: cell-based; settings: four hours, relative to vehicle treated control
Description: H929 multiple myeloma cells (catalog #CRL-9068) were obtained from the American Type Culture Collection (ATTC, Manassas, VA). Briefly, cells were grown in RPMI-1640 medium supplemented with 20% heat-inactivated fetal bovine serum (catalog #A3840002, ThermoFisher Scientific, Waltham, MA), 1% Penicillin/Streptomycin/L-Glutamine (catalog #10378016, ThermoFisher Scientific, Waltham, MA), and 0.05 mM 2-mercaptoethanol (catalog #21985-023, ThermoFisher Scientific, Waltham, MA) at 37° C., 5% CO2, and 95% humidity. Cells were expanded until reaching one million five hundred thousand cells per mL at which time they were sub-cultured or harvested for assay use. One million five hundred thousand cells per well in 1 mL complete growth medium were dispensed into 12-well plates and incubated overnight. A serial dilution of test compound was added, and cells were incubated at 37° C., 5% CO2, and 95% for four hours. Cells were lysed then ATF4 levels were measured using an ELISA assay (Proteintech, Rosemont, IL). Absorbance is measured at 450 nm and 544 nM using a Synergy2 or equivalent reader (Biotek, Winooski VT). Data were analyzed using PRISM software (Graphpad, San Diego, CA) to calculate fold stimulation of cellular ATF4 relative to vehicle treated control.

Chain of GCN2 kinase (Q9P2K8 whole entry): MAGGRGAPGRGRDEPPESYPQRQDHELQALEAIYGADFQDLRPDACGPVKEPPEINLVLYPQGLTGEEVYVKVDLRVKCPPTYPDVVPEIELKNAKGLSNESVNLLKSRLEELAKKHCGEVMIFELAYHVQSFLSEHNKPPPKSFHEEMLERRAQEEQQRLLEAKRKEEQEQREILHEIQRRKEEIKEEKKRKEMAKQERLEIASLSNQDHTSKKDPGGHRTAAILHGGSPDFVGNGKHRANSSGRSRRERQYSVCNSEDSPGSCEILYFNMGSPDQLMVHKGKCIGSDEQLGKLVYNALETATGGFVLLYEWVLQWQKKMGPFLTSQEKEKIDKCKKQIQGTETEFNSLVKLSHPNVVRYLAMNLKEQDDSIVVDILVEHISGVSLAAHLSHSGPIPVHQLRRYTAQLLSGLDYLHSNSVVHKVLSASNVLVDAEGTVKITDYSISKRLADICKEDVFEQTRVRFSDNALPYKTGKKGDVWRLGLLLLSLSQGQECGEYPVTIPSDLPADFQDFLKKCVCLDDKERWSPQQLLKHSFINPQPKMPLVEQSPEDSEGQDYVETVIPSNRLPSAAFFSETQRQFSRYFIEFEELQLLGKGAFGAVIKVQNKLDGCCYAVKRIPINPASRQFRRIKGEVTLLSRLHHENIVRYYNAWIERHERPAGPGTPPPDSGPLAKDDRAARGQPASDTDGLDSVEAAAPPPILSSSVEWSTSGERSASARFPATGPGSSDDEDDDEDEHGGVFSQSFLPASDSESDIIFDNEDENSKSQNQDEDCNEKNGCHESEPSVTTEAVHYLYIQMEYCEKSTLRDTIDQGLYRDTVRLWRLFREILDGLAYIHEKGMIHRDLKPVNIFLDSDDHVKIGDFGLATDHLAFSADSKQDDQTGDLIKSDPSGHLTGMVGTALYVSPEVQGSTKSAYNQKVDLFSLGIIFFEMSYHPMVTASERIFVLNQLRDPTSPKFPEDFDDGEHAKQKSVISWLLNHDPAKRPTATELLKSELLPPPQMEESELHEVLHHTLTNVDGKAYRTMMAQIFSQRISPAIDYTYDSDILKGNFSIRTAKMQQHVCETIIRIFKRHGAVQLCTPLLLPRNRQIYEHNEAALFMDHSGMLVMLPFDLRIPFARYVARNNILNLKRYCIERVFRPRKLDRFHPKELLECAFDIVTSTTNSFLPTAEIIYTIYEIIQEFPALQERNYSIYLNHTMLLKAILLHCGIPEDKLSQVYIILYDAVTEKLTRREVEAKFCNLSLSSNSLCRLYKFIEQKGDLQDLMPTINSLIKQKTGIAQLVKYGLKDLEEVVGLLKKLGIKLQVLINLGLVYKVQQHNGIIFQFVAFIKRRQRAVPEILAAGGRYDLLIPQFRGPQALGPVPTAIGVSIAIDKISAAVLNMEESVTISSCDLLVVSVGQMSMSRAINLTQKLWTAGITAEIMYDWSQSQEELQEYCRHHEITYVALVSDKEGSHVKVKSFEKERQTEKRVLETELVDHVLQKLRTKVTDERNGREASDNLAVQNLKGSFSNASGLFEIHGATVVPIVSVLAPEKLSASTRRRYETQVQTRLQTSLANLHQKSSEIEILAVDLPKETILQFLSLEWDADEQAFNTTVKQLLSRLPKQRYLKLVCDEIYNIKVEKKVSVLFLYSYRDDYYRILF
Chain of PERK enzyme (Q9NZJ5 other isoform, or with tags, fused parts or gaps): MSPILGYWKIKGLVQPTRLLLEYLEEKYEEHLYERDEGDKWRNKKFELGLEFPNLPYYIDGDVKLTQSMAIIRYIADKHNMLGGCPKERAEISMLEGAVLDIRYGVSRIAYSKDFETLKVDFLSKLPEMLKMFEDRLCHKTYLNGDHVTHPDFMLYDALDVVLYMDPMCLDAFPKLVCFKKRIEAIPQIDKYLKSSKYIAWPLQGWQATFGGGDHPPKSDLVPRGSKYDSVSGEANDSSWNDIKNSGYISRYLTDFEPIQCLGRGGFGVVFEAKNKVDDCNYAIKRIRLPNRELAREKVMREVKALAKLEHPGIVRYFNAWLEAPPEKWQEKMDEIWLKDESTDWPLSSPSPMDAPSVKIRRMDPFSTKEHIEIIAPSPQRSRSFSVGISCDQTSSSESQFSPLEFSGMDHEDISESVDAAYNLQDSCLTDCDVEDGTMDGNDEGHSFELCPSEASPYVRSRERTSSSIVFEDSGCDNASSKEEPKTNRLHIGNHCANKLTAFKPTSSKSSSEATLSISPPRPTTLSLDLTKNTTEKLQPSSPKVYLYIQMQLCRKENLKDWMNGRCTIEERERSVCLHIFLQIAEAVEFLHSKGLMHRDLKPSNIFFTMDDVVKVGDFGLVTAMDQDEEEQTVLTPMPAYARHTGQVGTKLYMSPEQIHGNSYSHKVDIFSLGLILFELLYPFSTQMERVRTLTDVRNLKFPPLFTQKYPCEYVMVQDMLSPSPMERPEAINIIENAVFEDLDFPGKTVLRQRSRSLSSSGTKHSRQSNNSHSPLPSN

CC(C)n1cc(-c2cccc(NS(=O)(=O)c3cc(Cl)cc(CO)c3Cl)c2F)c2c(N)ncnc21 [Example 3]
pIC50 [1]: ≥ 7.00 | pIC50 [2]: ≥ 7.00 | pIC50 [3]: ≥ 7.00 | pIC50 [4]: ≥ 7.00 | pIC50 [5]: ≥ 7.00 | pIC50 [6]: ≥ 7.00

Cn1cc(-c2cc(F)cc(NS(=O)(=O)c3cc(Cl)cc(CO)c3Cl)c2F)c2c(N)ncnc21 [Example 14]
pIC50 [1]: ≥ 7.00 | H929 NS ATF4 ELISA (ATF4 stim) [7]: ++ (an ATF4 stim greater than 5-fold and less than or equal to 10 fold) | pIC50 [3]: 6.30 to 7.00 | pIC50 [4]: ≥ 7.00 | pIC50 [6]: 6.30 to 7.00

Cn1nc(-c2cccc(NS(=O)(=O)c3cc(Cl)cc(CO)c3Cl)c2F)c2c(N)ncnc21 [Example 21]
pIC50 [1]: ≥ 7.00 | H929 NS ATF4 ELISA (ATF4 stim) [7]: ++ (an ATF4 stim greater than 5-fold and less than or equal to 10 fold) | pIC50 [3]: 6.30 to 7.00 | pIC50 [4]: ≥ 7.00 | pIC50 [6]: 6.30 to 7.00

COc1c(CO)cc(Cl)cc1S(=O)(=O)Nc1cccc(-c2cn(C)c3ncnc(N)c23)c1F [Example 24]
pIC50 [1]: 5.00 to 6.00 | H929 NS ATF4 ELISA (ATF4 stim) [7]: ++ (an ATF4 stim greater than 5-fold and less than or equal to 10 fold) | pIC50 [3]: 6.30 to 7.00 | pIC50 [4]: ≥ 7.00 | pIC50 [6]: 5.00 to 6.00

Cc1cc(CO)c(Cl)c(S(=O)(=O)Nc2cccc(-c3cn(C)c4ncnc(N)c34)c2F)c1 [Example 25]
pIC50 [1]: 6.30 to 7.00 | H929 NS ATF4 ELISA (ATF4 stim) [7]: +++ (an ATF4 stim greater than 10 fold and less than or equal to 20 fold) | pIC50 [3]: ≥ 7.00 | pIC50 [4]: ≥ 7.00 | pIC50 [6]: 6.30 to 7.00

Cc1c(CO)cc(Cl)cc1S(=O)(=O)Nc1cccc(-c2cn(C)c3ncnc(N)c23)c1F [Example 26]
pIC50 [1]: ≥ 7.00 | H929 NS ATF4 ELISA (ATF4 stim) [7]: +++ (an ATF4 stim greater than 10 fold and less than or equal to 20 fold) | pIC50 [3]: ≥ 7.00 | pIC50 [4]: ≥ 7.00 | pIC50 [6]: 6.30 to 7.00
